The test system of data set [1] is CV-1 monkey kidney cells (do not express AR). To be noted: for IC50: read-out: Growth Curve CV-1.
The test system of data set [2] is LNCaP prostate cancer cells (express AR). As to conditions: for IC50: read-out: Growth Curve LNCaP.
Data set [3] shares this test system. Kind of data set: cells. To be noted: Homo sapiens, 120 h, read-out: Growth Curve LNCaP.
Data set [4] has the same test system.
In data set [5] the target is T1, Androgen Receptor (AR) (Rattus norvegicus, UniProt P15207).
T1 sequence (P15207 1-902): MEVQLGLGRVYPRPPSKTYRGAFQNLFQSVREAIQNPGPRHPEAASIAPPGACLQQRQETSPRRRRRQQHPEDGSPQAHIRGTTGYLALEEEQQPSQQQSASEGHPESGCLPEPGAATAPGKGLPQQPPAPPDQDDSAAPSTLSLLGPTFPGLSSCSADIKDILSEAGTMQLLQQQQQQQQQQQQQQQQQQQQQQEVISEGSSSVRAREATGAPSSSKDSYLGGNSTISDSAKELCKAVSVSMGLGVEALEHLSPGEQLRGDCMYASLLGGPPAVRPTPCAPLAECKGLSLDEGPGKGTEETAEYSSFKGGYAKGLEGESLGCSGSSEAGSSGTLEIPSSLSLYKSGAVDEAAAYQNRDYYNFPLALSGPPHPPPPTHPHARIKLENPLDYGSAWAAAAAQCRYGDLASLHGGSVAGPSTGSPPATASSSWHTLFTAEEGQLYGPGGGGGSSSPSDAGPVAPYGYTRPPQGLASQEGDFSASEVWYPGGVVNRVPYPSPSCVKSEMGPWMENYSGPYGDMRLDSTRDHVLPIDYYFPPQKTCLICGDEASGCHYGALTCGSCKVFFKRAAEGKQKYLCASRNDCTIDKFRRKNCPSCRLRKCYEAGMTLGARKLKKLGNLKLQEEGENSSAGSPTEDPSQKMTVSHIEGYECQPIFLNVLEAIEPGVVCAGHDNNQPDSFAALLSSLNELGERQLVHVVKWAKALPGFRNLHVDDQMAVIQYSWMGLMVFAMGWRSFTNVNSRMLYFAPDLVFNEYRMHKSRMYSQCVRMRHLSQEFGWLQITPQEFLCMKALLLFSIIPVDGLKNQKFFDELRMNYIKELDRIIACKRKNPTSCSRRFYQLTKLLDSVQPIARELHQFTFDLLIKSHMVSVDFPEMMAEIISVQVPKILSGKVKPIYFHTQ
Format: binding.

Structures are written as SMILES. Read-outs that look alike come from different tables or passages of the source.

For `C[C@](O)(COc1ccc(N(CCCl)CCCl)cc1)C(=O)Nc1ccc(C#N)c(C(F)(F)F)c1.Cl` [Compound 1], in data set [1], the “cytotoxicity in CV-1 cells” value is “cytotoxic”, the “potency in CV-1 cells less than in LNCaP cells” value is reported as “approximately 3.5 fold” and the IC50 came to 1940 nM. Further, the IC50 in data set [2] was determined as 860 nM.
`C[C@](O)(COc1ccc(N(CCO)CCO)cc1)C(=O)Nc1ccc(C#N)c(C(F)(F)F)c1` [Compound 2]: the “cytotoxicity in CV-1 cells” value in data set [1] is “not cytotoxic”. The IC50 in data set [3] was determined as 770 nM. In data set [2], the “cytotoxicity / cell growth inhibition in LNCaP cells” value was “not cytotoxic” and the max inhibition entry is “Trypan Blue (max 65% inhibition)”.
For the molecule `OCCN(CCO)c1ccc(O)cc1` [Compound 4], the “cytotoxicity in LNCaP cells” value in data set [4] is “nontoxic”. For the same molecule, the “Ki (nM)” value in data set [5] is on record as “DNB”.
On to `C[C@](O)(CSc1ccc(OC(=O)N(CCCl)CCCl)cc1)C(=O)Nc1ccc([N+](=O)[O-])c(C(F)(F)F)c1` [Compound 6], for which the IC50 in data set [1] came to 4650 nM; in data set [2], 800 nM.
For the molecule `C[C@](O)(COc1ccc(N(CCCl)CCCl)cc1)C(=O)Nc1ccc(C#N)c(I)c1.Cl` [Compound 7], the IC50 in data set [1] worked out at 2610 nM. Moreover, in data set [2], the “cytotoxicity / cell growth inhibition in LNCaP cells” value was “potent and selective cell growth inhibition effect”; the IC50 is 330 nM.
`C[C@](O)(COc1ccc(N(CCCl)CCCl)cc1)C(=O)Nc1ccc([N+](=O)[O-])c(C(F)(F)F)c1.Cl` [Compound 8]: the IC50 in data set [1] came to 5200 nM. Also, in data set [2], the “cytotoxicity / cell growth inhibition in LNCaP cells” value was “potent and selective cell growth inhibition effect”; the IC50 was determined as 810 nM.
On to `C[C@](O)(CS(=O)(=O)c1ccc(OC(=O)N(CCCl)CCCl)cc1)C(=O)Nc1ccc([N+](=O)[O-])c(C(F)(F)F)c1` [Compound 10], for which the values for the IC50 in data set [1] and in data set [2] were 2600 nM and 1500 nM, respectively.

The record behind these values is patent publication US20050209320A1 (priority 2003, published 2005).
